Patent publication US20150183738A1, “3-N-BUTYL-1-ISOINDOLINONE AND USE THEREOF FOR PREVENTING OR TREATING CEREBRAL INFARCTION” (SUN YAT-SEN UNIVERSITY, priority 2012, published 2015)
Entries after “also recorded” stand apart in the source; their conditions may differ.

Key:
[1] = test system: middle cerebral artery occlusion (MCAO) model in rats; assay: Influence on cerebral infarct area/volume in MCAO models of rats (TTC staining, image J); format: in vivo, Male SD rats; details: for average infarct area: 30 mg/kg intraperitoneal injection 15 min after ischemia, 2 hrs of cerebral infarction and 24 hrs of reperfusion, TTC staining
Method: The middle cerebral artery occlusion (MCAO) model in rats is constructed to observe the anti-cerebral ischemia of 3-n-butyl-1-isoindolinone. The MCAO model is divided into three groups: 1) a negative control group, i. e., an vegetable oil, 3 mL/kg; 2) 3-n-butyl-1-isoindolinone group, 30 mg/kg; 3) a positive control group, i. e., 3-n-butylphthalide, 30 mg/kg. All the three groups are administered via intraperitoneal injection. Male SD rats having a weight of 250 g are selected and administered 15 min after the ischemia. After 2 hrs of cerebral infarction and 24 hrs of reperfusion, brain slices are prepared and conducted with TTC staining. Software image J is used to process staining results, calculate infarct areas, and compared with the results among different groups. It is known from the results that an average infarct area of the blank group is 24.430%, the average infarct area of the 3-n-butyl-1-isoindolinone group is 14.365%, and the average infarct area of the butylphthalide group is 14.402%. […] Male SD rats having a weight of between 250 and 270 g are selected. The Male SD rats are cultivated at a room temperature of 25° C. and are forbidden from feeding food except for water 12 hrs before the operation. The MCAO models are constructed in accordance with longa method or the like. 10% chloral hydrate is used to anesthetize the rats by intraperitoneal injection with a dose of 350 mg/kg. The rat is then upwardly fixed on a rat plate in a supine position and illuminated by an incandescent lamp for maintaining a body temperature thereof at 37±0.5° C. Rat hairs at the middle position of the neck are sheared, and the skin at such position is incised after disinfection. The common carotid artery (CCA), external carotid artery (ECA), and internal carotid artery (ICA) of the right side are carefully separated. The ECA is cut, and a cut end is straightened and aligned with the ICA, and a thread is then inserted therefrom. The thread is inserted for a depth of approximately 19.0±0.5 mm. After 2 hrs, a part of the thread is pulled out to realize reperfusion. The rat after suture ligation is then put back to the rat cage. After 24 hrs of reperfusion, brain slices are prepared for staining. The rats are divided into three groups with 10 in each group: 1) a blank control group, i. e., an vegetable oil, 3 mL/kg; 2) 3-n-butyl-1-isoindolinone group, 30 mg/kg; 3) a positive control group, i. e., 3-n-butylphthalide, 30 mg/kg. All the three groups are administered with drugs via intraperitoneal injection 15 min after modeling. After 24 hrs of reperfusion, brains are collected from killed rats and placed in Petri dishes. The brain tissues are quickly collected and placed in a refrigerator at a temperature of −20° C. for 20 min and taken out. The olfactory bulb, the cerebellum, and the lower brainstem are removed, and the remaining brain is then cut for five times with an interval of 2 mm, whereby six consecutive coronal brain slices are formed. 2% TTC dye solution is added to the Petri dishes to submerge the brain slice by the solution. The Petri dishes are placed at the temperature of 37° C. and incubated in the absence of light for between 25 and 30 min during which the brain slices are turned over once every 5 min. After TTC staining of the brain slices, a normal tissue thereof presents red and an ischemic region presents white. When the TTC staining is finished, the TTC dye solution is removed out of the Petri dishes by syringes. Formalin solution with an amount enabling to submerge the brain slices is then added, and the Petri dishes are placed in the dark. After 24 hrs, solidified brain slices are taken out and arranged in order in a blue background to take pictures. […]

[2] = test system: middle cerebral artery occlusion (MCAO) model in rats; assay: Neurobehavioral assessment (Zea Longa) in MCAO models of rats; format: in vivo, Male SD rats; details: score after 24 hrs of reperfusion; for alleviation of the neurobehavior compared with the blank control group (ANOVA): 30 mg/kg i.p.
Method: Male SD rats having a weight of between 250 and 270 g are selected. The Male SD rats are cultivated at a room temperature of 25° C. and are forbidden from feeding food except for water 12 hrs before the operation. The MCAO models are constructed in accordance with longa method or the like. 10% chloral hydrate is used to anesthetize the rats by intraperitoneal injection with a dose of 350 mg/kg. The rat is then upwardly fixed on a rat plate in a supine position and illuminated by an incandescent lamp for maintaining a body temperature thereof at 37±0.5° C. Rat hairs at the middle position of the neck are sheared, and the skin at such position is incised after disinfection. The common carotid artery (CCA), external carotid artery (ECA), and internal carotid artery (ICA) of the right side are carefully separated. The ECA is cut, and a cut end is straightened and aligned with the ICA, and a thread is then inserted therefrom. The thread is inserted for a depth of approximately 19.0±0.5 mm. After 2 hrs, a part of the thread is pulled out to realize reperfusion. The rat after suture ligation is then put back to the rat cage. After 24 hrs of reperfusion, brain slices are prepared for staining.
The rats are divided into three groups with 10 in each group: 1) a blank control group, i. e., an vegetable oil, 3 mL/kg; 2) 3-n-butyl-1-isoindolinone group, 30 mg/kg; 3) a positive control group, i. e., 3-n-butylphthalide, 30 mg/kg. All the three groups are administered with drugs via intraperitoneal injection 15 min after modeling.
According to Zea Longa assessment, ethology observation is conducted after 2 hrs of modeling and 24 hrs of reperfusion and before killing the rats. The tail of the rat is seized to lift the rat about 1 foot off the ground to observe the condition of the left forelimb. […]
After 24 hrs of reperfusion of the MCAO models of the rats, the neurobehavioral assessment is conducted on the rats again, and the results are recorded.

[3] = background statement; oily liquid; cited from earlier work
[4] = 30 mg/kg i.p., 2 hrs MCAO, 24 hrs reperfusion

## CCCCC1OC(=O)c2ccccc21 (stereo not shown) [butylphthalide, 3-n-butylphthalide, reference compound]
[1]; [4]
  reduced infarct area compared with the blank control group (one-factor ANOVA): significant difference (P<0.01)
[1]
  average infarct area: 14.402%
[2]
  alleviation of the neurobehavior compared with the blank control group (ANOVA): significant difference
[3]
  water solubility: water insoluble

## CCCCC1NC(=O)c2ccccc21 (stereo not shown) [3-n-butyl-1-isoindolinone]
[1]; [4]
  infarct volume reduced compared with the solvent control group: 41.199%
  reduced infarct area compared with the blank control group (one-factor ANOVA): significant difference (P<0.001)
[1]
  average infarct area: 14.365%
[1]; both 30 mg/kg i.p., 2 hrs MCAO, 24 hrs reperfusion
  reduced infarct area, difference compared with butylphthalide (one-factor ANOVA): no significant statistical difference; also recorded: no statistical significance (P=0.989)
[2]
  alleviation of the neurobehavior compared with the blank control group (ANOVA): significant difference (P=0.003<0.01)
[2]; both 30 mg/kg i.p.
  alleviation of the neurobehavior compared with the butylphthalide group (ANOVA): no significant difference (P=0.384>0.05)
